SMILES strings stand for the structures.

One data set concerns DEX-treated mice. In words: Forced swimming test (FST), neonatal dexamethasone exposure model of depression. It is filed as in vivo. Particulars: juvenile DEX-treated mice, 10 mg/kg i.p. single injection. How it is done:
A new animal model of depression was prepared by exposing mice neonatally to dexamethasone (hereinafter abbreviated as DEX). […] The mouse model was prepared and reported only recently by the inventors of the present application and their collaborators (Non Patent Literature 18). […] Further, alterations were found in levels of amino acids (glutamate, glutamine, glycine, D-serine, and L-serine) in mouse brains after the neonatal DEX exposure (Non Patent Literature 18). Those amino acids are known to be associated with NMDA receptor mediated neurotransmission. Thus, it is conceivable that alterations in glutamatergic transmission via the NMDA receptor after the neonatal DEX exposure may be involved in the depression-like behavior in the juvenile mice and the adult mice (Non Patent Literature 18).
The preparation of the animal model of depression and the administration of the agent were specifically performed as described below (FIG. 2A). Male and female ICR mice (9-week-old, Japan SLC, Inc., Hamamatsu, Japan) were used. The mice were given free access to water and feed. A breeding procedure consisted of housing three to four females with one male, for 14 days. On the final day of this period, the females were placed in isolation and checked daily around the expected delivery day. The day of birth was defined as day 0. The mice were injected intraperitoneally with DEX (Wako Pure Chemical Industries, Ltd., Tokyo, Japan) dissolved in saline on day 1, day 2, and day 3 at doses of 0.5 mg/kg body weight, 0.3 mg/kg body weight, and 0.1 mg/kg body weight, respectively. In addition, normal controls were injected with equal volumes (10 ml/kg) of saline.
The antidepressant effects of the agent were investigated for juvenile mice by behavioral tests such as the TST, the PST, the LMT, and a 1% sucrose preference test (SPT) (FIG. 2A). The TST and the PST were performed twice, i.e., the day (27 hours and 29 hours, respectively) and 7 days after the injection of ketamine, and the LMT and the SPT were performed on the day and 2 days after the injection of ketamine. The TST was performed as described below. First, the mice were taken out from cages, and then a small piece of an adhesive tape was bonded onto a portion approximately 2 cm away from the tip of the tail of the mice. […] The immobility time of each mouse was recorded for 10 minutes. […] The immobility time was calculated as a value obtained by subtracting active time from total time, using the analysis software of the apparatus. Cumulative immobility time was recorded over 6 minutes during a test period. […] The locomotor activity of the mice was counted with SCANET MV-40, and the cumulative exercise of the mice was recorded for 60 minutes. […]

The next data set concerns Control C57/B6 mice. In words: Prepulse inhibition test in control mice. The settings on record: control mice, 5, 10 or 20 mg/kg.
For data set [1], the system named is cerebral metabolic rates of glucose. Particulars: healthy volunteers, Non Patent Literature 13, cited from earlier work; for cerebral metabolic rates of glucose (CMRglu), PET: S(+)-ketamine i.v. 15 mg for 5 min then 0.014 to 0.02 mg/kg/min for 53 min, R(−)-ketamine equimolar doses.
The subject of data set [2] is dopamine release in the striatum. The settings on record: imaging studies in nonhuman primates; Hashimoto et al., 2017; cited from earlier work.
In data set [3] the test system is social defeat stress mice. In words: Tail suspension test (TST), social defeat stress model. It is filed as in vivo. Particulars: 10 mg/kg i.p. How it is done:
A social defeat stress model of depression was prepared by bringing C57/B6 male mice into contact with ICR male mice (large aggressive mice) for 10 consecutive days to apply a stress called a “social defeat stress” in accordance with the previous report (Non Patent Literature 19). […] Specifically, an increase in immobility time was found in each of a tail suspension test (TST) and a forced swimming test (FST).
The preparation of the animal model of depression and the administration of the agent were specifically performed as described below (FIG. 3A). Male C57/B6 mice (7-week-old, Japan SLC, Inc., Hamamatsu, Japan) and ICR mice (9-week-old, Japan SLC, Inc., Hamamatsu, Japan) were used. The mice were given free access to water and feed. A social defeat stress was applied by housing one C57/B6 mouse with one ICR mouse for 10 days.
The antidepressant effects of the agent were investigated by behavioral tests such as the TST, the PST, the LMT, and a 1% sucrose preference test (SPT) (FIG. 3A). The 1% sucrose preference test (SPT) was performed on 1 day and 6 days after the injection of ketamine. Each of the TST and the PST was performed on 2 days and 7 days after the injection of ketamine. The TST was performed as described below. First, the mice were taken out from cages, and then a small piece of an adhesive tape was bonded onto a portion approximately 2 cm away from the tip of the tail of the mice. A small hole was opened in the small piece, and the mice were each fixed upside down on a hook through the small hole. The immobility time of each mouse was recorded for 10 minutes. Mice were considered immobile only when they hung passively and completely motionless. The immobility time increases in a depressive state. The PST was performed as described below. First, the mice were placed individually in a cylinder (diameter: 23 cm; height: 31 cm) containing 15 cm of water, maintained at 22 to 24 deg C. The mice were tested in an automated forced-swimming apparatus using SCANET MV-40 ([…] Co., Ltd., Toyama, Japan). The immobility time was calculated as a value obtained by subtracting active time from total time, using the analysis software of the apparatus. Cumulative immobility time was recorded over 6 minutes during a test period. The LMT was performed as described below. First, the mice were placed in experimental cages (length×width×height: 560×560×330 mm). The locomotor activity of the mice was counted with SCANET MV-40, and the cumulative exercise of the mice was recorded for 60 minutes. The cages were cleaned between testing session. The immobility time increases in a depressive state. […] A spine density was quantitatively evaluated by observation with a KEYENCE microscope (BZ-9000, Osaka, Japan).

Description for Control C57/B6 mice: PP69, PP73, PP77, and PP81 mean that stimuli at 69, 73, 77, and 81 dB for more than 20 milliseconds were presented 100 milliseconds before a 110-dB pulse, respectively. Data analysis was performed by Wilks Lambda, which is multivariate analysis of variance (Example 3).
The prepulse inhibition test was performed using a startle response system (SR-LAB, SanDiego Instruments, San Diego, Calif., United States). The analysis of the results of prepulse inhibition was performed by multivariate analysis of variance (MANOVA), followed by a least significant difference test (LSD test). Data are presented as the mean plus minus standard error of the mean (n=10 to 12 mice/group). *p<0.05 and p<0.01 indicate significant differences as compared to a group injected with saline.

Take `CN[C@@]1(c2ccccc2Cl)CCCCC1=O.Cl` [R(−)-ketamine]: the figures for the “immobility time in the FST” value with DEX-treated mice (29 hours after injection) and in the data set with DEX-treated mice (7 days after injection) were “markedly reduced the immobility time” and “significantly reduced the immobility time”, respectively. In the data set with Control C57/B6 mice, the prepulse inhibition result is recorded as “did not disrupt prepulse inhibition”. For the same compound, the psychotic symptoms result in data set [1] (doses equimolar to psychotomimetic doses of S(+)-ketamine) is listed as “did not produce psychotic symptoms”. The “cerebral metabolic rates of glucose (CMRglu), PET” value in data set [1] was “tended to decrease CMRglu”. In data set [2], the “dopamine release in the striatum” value was “not”. The “immobility time in the TST” value was “markedly reduced the immobility time” in data set [3] (2 days after injection) and “significantly reduced the immobility time” in data set [3] (7 days after injection).
As to `CN[C@]1(c2ccccc2Cl)CCCCC1=O` [S(+)-ketamine], the “immobility time in the FST” value with DEX-treated mice (29 hours after injection) was “markedly reduced the immobility time”; in the data set on DEX-treated mice (7 days after injection), “did not reduce the immobility time”. Further, the prepulse inhibition entry in the data set with Control C57/B6 mice is “disrupted prepulse inhibition in a dose-dependent manner”. The “cerebral metabolic rates of glucose (CMRglu), PET” value in data set [1] was “increased cerebral metabolic rates of glucose”. In addition, the “dopamine release in the striatum” value in data set [2] is given as “increases dopamine release in the striatum”. Further, the “immobility time in the TST” value is on record as “markedly reduced the immobility time” in data set [3] (2 days after injection) and “significantly reduced the immobility time” in data set [3] (7 days after injection).

These data come from patent US11426367B2, “Methods of treating substance abuse” (Perception Neuroscience, Inc., priority 2018, dated 2022).
